From US20250090699A1, “FAP TARGETING CYCLIC PEPTIDES AND CONJUGATES THEREOF” (Novartis AG, priority 2023, published 2025)
Structures can show the parent of a compound that is named as a salt. Starred links: 1 amine or outer side, 2 acyl side, 3 side chain; linkers in the order of their positions; H or OH if unused. Non-standard residues stand in square brackets, D forms with d. Residues, ends and D or L forms follow the SMILES beside them. Groups on a side chain read outwards from the residue. *: point of attachment. F(4OEtNHDOTA-Lu) = lutetium complex of (S)-2,2',2''-(10-(2-((2-(4-(2-amino-2-carboxyethyl)phenoxy)ethyl)amino)-2-oxoethyl)-1,4,7,10-tetraazacyclododecane-1,4,7-triyl)triacetic acid (Phe with 4-O-ethylamino-DOTA-Lu), O=C([O-])CN1CCN(CC(=O)[O-])CCN(CC(=O)NCCOc2ccc(C[C@H](N[*:1])C(=O)[*:2])cc2)CCN(CC(=O)[O-])CC1.[Lu+3]; Trp(6-OH) = N[C@@H](Cc1c[nH]c2cc(O)ccc12)C(=O)O; Trp(7-aza) = N[C@@H](Cc1c[nH]c2ncccc12)C(=O)O; Piperazinyl(4-CH2COOH) = O=C(O)CN1CCN(*)CC1; 3Pal(6-NH2) = Nc1ccc(C[C@H](N)C(=O)O)cn1; NMeF = CN[C@@H](Cc1ccccc1)C(=O)O; Ahp(2) = CCCCC[C@H](N)C(=O)O; dPip = O=C(O)[C@H]1CCCCN1; Orn = NCCC[C@H](N)C(=O)O; CO = O=C([*:1])[*:2]

Experiments:
[1] = biological target: T1, mouse FAP (Mus musculus, UniProt P97321); experiment: Surface plasmon resonance (SPR) for peptide affinity, mouse FAP; assay type: binding
T1 construct: biotinylated His, Avi tag, mouse FAP (26-761, FAP-M82Q5); His; Avi tag (biotinylated); purchased AcroBiosystems FAP-M82Q5
T1 sequence (P97321 26-761): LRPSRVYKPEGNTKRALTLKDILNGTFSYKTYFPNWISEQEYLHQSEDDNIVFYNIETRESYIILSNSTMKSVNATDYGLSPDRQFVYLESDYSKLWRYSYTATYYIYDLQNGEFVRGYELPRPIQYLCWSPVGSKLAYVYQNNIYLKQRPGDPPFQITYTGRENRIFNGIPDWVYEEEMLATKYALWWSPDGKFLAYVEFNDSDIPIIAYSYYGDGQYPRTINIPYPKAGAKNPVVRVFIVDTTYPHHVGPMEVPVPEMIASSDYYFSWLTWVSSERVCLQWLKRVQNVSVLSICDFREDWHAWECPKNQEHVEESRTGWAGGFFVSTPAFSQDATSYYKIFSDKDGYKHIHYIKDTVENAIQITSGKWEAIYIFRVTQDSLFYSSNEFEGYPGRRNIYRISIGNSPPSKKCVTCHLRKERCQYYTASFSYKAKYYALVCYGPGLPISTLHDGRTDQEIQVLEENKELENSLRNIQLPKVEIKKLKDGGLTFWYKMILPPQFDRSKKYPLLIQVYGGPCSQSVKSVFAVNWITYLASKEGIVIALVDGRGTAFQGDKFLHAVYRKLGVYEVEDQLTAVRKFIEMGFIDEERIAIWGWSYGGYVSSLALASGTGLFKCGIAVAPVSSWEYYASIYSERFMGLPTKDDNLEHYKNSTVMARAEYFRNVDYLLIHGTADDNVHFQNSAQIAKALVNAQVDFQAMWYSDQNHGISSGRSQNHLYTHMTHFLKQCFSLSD
Outline: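 KD values come from a 1:1 kinetic fit of single-cycle SPR data: 8 peptide concentrations, 25 °C, 30 μL/min, HEPES-buffered saline pH 7.6 with 2% DMSO. Targets were His/Avi-tagged human (26-760) or mouse (26-761) FAP, amine-coupled to CM5 or held on a CAPture chip.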

[2] = biological target: T2, human FAP (Homo sapiens, UniProt Q12884); experiment: Enzymatic FAP competition assay (Z-Gly-Pro-AMC fluorescence), human FAP; assay type: biochemical; settings: read-out: h. FAP, Enz., IC50
T2 construct: the biotinylated His, Avi tag, human FAP (26-760, FAP-H82Q6); His; Avi tag (biotinylated); purchased AcroBiosystems FAP-H82Q6
T2 sequence (Q12884 26-760): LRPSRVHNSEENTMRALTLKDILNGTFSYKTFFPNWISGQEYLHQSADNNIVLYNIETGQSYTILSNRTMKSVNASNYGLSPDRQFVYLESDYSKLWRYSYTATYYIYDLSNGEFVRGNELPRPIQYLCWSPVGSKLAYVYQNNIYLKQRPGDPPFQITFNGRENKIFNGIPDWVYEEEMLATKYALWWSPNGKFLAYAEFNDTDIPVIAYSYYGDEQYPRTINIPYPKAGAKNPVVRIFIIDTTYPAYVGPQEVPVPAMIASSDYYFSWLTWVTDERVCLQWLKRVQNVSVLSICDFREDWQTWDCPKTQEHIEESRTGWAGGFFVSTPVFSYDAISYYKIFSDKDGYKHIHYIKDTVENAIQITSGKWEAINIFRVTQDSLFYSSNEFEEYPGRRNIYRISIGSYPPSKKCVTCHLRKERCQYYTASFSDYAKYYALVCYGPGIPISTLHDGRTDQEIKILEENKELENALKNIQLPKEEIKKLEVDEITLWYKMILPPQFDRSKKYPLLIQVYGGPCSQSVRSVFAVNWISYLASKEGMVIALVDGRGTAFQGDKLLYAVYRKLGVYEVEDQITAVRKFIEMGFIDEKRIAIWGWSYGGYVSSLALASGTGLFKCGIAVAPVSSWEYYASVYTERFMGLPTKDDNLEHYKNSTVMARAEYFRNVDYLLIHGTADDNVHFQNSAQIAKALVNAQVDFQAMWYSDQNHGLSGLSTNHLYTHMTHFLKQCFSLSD
Outline: (§1)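 IC50 values come from curve fitting of duplicate % inhibition data on AMC fluorescence (ex 380, em 460 nm) after 4 h at 22-24° C with 50 μM Z-Gly-Pro-AMC. Beforehand, peptides up to 1 μM (14 levels) sat 24 h with 0.01 nM human (26-760) or mouse (26-761) tagged FAP in phosphate buffer pH 7.5, NaCl, Tween20, 1% DMSO.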

[3] = biological target: T1, mouse FAP; experiment: Enzymatic FAP competition assay (Z-Gly-Pro-AMC fluorescence), mouse FAP; assay type: biochemical; settings: read-out: m. FAP, Enz., IC50
Outline: as §1

In the case of `CCCCC[C@@H]1NC(=O)[C@H](Cc2ccc(O)cc2)NC(=O)[C@H](Cc2ccccc2)N(C)C(=O)CNC(=O)[C@H](CCCCN)NC(=O)[C@H]2CCCN2C(=O)[C@H](CC(=O)O)NC(=O)[C@H](Cc2ccc(O)cc2)NC(=O)CNC(=O)[C@H](Cc2c[nH]c3ncccc23)NC1=O` [Example A26, 2-((3S,9S,12S,15S,18S,24S,27S,32aR)-18-((1H-pyrrolo[2,3-b]pyridin-3-yl)methyl)-3-(4-aminobutyl)-9-benzyl-12,24-bis(4-hydroxybenzyl)-8-methyl-1,4,7,10,13,16,19,22,25,28-decaoxo-15-pentyldotriacontahydropyrrolo[1,2-a][1,4,7,10,13,16,19,22,25,28]decaazacyclotriacontin-27-yl)acetic acid TFA salt] (cyclo([Ahp(2)][Trp(7-aza)]GYD[dP]KG[NMeF]Y)), the Kd [1] is reported as 2.7 nM, the IC50 [2] is reported as 0.47 nM and the IC50 [3] is reported as 1.6 nM.
“Gly-Gly-NMe3PyA-F(4amPEG2NHDOTA-Lu)-hS(Pr)-W7N-Gly-K(COpipzaa)-Asp-D-Pro [Example C3]” gave a Kd [1] of under 0.041 nM, an IC50 [2] of 0.007 nM and an IC50 [3] of 0.019 nM.
`CCCCC[C@@H]1NC(=O)[C@H](Cc2ccc(O)cc2)NC(=O)[C@H](Cc2ccccc2)N(C)C(=O)CNC(=O)CNC(=O)[C@H]2CCCCN2C(=O)[C@H](CC(=O)O)NC(=O)[C@H](Cc2ccc(O)cc2)NC(=O)CNC(=O)[C@H](Cc2c[nH]c3ccccc23)NC1=O` [Example A66, Gly-Gly-NMePhe-Tyr-Ahp-Trp-Gly-Tyr-Asp-Pi(2R-COOH)] (cyclo([Ahp(2)]WGYD[dPip]GG[NMeF]Y)) gave a Kd [1] of 0.46 nM, an IC50 [2] of 0.27 nM and an IC50 [3] of 1.2 nM.
“Gly-Gly-NMePhe-F(4OEtNHDOTA-Lu)-Ahp-Trp-Gly-3PyA(6NH2)-Asp-D-Pro (cyclo(GG[NMeF][F(4OEtNHDOTA-Lu)][Ahp(2)]WG[3Pal(6-NH2)]D[dP]); also: Lu complex of DOTA) [Example C24]” gave a Kd [1] of 0.035 nM, an IC50 [2] of 0.013 nM and an IC50 [3] of 0.059 nM.
`CCCCC[C@@H]1NC(=O)[C@H](Cc2ccc(O)cc2)NC(=O)[C@H](Cc2ccccc2)N(C)C(=O)CNC(=O)[C@H](CCCCN)NC(=O)[C@H]2CCCN2C(=O)[C@H](CC(=O)O)NC(=O)[C@H](Cc2ccc(O)cc2)NC(=O)CNC(=O)[C@H](Cc2c[nH]c3cc(O)ccc23)NC1=O` [Example A24, Lys-Gly-NMePhe-Tyr-Ahp-W(6OH)-Gly-Tyr-Asp-D-Pro, TFA salt] (cyclo([Ahp(2)][Trp(6-OH)]GYD[dP]KG[NMeF]Y)) showed a Kd [1] of 0.85 nM, an IC50 [2] of 0.37 nM and an IC50 [3] of 1.3 nM.
For `CCCCCC[C@@H]1NC(=O)[C@H](Cc2ccc(CNC(=O)COCCOCCNC(=S)Nc3ccc(CC4CN(CC(=O)O)CCN(CC(=O)O)CCN(CC(=O)O)CCN4CC(=O)O)cc3)cc2)NC(=O)[C@H](Cc2ccccc2)N(C)C(=O)CNC(=O)CNC(=O)[C@H]2CCCN2C(=O)[C@H](CC(=O)O)NC(=O)[C@H](CCCCNC(=O)N2CCN(CC(=O)O)CC2)NC(=O)CNC(=O)[C@H](Cc2c[nH]c3ccccc23)NC1=O` (stereo partly drawn) [Example B37, Gly-Gly-NMePhe-F(4amPEG2NH-p-SCN-DOTA-Aoc-Trp-Gly-K(COpipzaa)-Asp-D-Pro], the Kd [1] was under 0.022 nM, the IC50 [2] was 0.017 nM and the IC50 [3] was 0.042 nM.
Work on `CCCCC[C@@H]1NC(=O)[C@H](Cc2ccc(O)cc2)NC(=O)[C@H](Cc2ccccc2)N(C)C(=O)CNC(=O)CNC(=O)[C@H]2CCCN2C(=O)[C@H](CC(=O)O)NC(=O)[C@H](CCCNC(=O)N2CCN(CC(=O)O)CC2)NC(=O)CNC(=O)[C@H](Cc2c[nH]c3ccccc23)NC1=O` [Example A4, Gly-Gly-NMePhe-Tyr-Ahp-Trp-Gly-Orn(COPipzaa)-Asp-D-Pro, TFA salt] (cyclo([Ahp(2)]WG[Orn]([CO-Piperazinyl(4-CH2COOH)])D[dP]GG[NMeF]Y)) yielded a Kd [1] of 0.47 nM, an IC50 [2] of 0.203 nM and an IC50 [3] of 0.57 nM.
